The values that follow come from ChEMBL document CHEMBL3286214, “Tyrosinase inhibitory activity of a glucosylated hydroxystilbene in mouse melan-a melanocytes” (J Nat Prod, 2014).

SMILES strings stand for the structures. Activity calls are given as the source filed them. The calls are words filed in the database; no cut-off is given here.

Test [1] deals with Melan-a. The test can be described thus: Effect on tyrosinase localization in mouse Melan-a cells assessed as lysosome at 60 uM incubated for 3 days by confocal immunofluorescence microscopy. The format is functional, cell-based.
For test [2], the target named is T1, Tyrosinase (Mus musculus) (UniProt P11344).
T1 sequence (whole entry): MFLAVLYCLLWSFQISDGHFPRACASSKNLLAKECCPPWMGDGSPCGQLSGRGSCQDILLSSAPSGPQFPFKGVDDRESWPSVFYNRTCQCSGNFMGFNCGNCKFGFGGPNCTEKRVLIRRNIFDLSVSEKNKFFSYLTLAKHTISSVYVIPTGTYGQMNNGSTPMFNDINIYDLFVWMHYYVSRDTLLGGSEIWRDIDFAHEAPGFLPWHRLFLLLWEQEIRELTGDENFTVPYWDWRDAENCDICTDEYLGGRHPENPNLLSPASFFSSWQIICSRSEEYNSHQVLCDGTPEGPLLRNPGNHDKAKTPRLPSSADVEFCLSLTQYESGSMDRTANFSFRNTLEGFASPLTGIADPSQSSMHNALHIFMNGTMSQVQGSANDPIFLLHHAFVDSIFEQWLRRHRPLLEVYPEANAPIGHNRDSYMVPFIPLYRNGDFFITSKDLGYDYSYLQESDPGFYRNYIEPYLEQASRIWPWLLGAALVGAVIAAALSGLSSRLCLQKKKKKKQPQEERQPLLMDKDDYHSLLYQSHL
The test can be described thus: Inhibition of tyrosinase in mouse Melan-a cells assessed as decrease in L-DOPA Vmax by Lineweaver-Burk plot. Type of test: cell-based.

Test [3] addresses T2, Tyrosinase (Mus musculus, UniProt P11344).
T2 sequence (P11344 whole entry): T1 sequence (whole entry)
The test can be described thus: Inhibition of tyrosinase in mouse Melan-a cells assessed as decrease in L-DOPA Vmax at 240 uM by Lineweaver-Burk plot. The format is cell-based.

The target in test [4] is T1, Tyrosinase (Mus musculus). The test can be described thus: Inhibition of tyrosinase in mouse Melan-a cells after 3 days by L-DOPA oxidation assay in presence of 20 nM TPA melanogenesis inducer. The format is cell-based.
In test [5] the target is T1, Tyrosinase (Mus musculus). The test can be described thus: Inhibition of tyrosinase in mouse Melan-a at 60 uM after 3 days by L-DOPA oxidation assay in presence of 1 uM forskolin melanogenesis inducer (reference value: 162%). Also on record: scale not given: the % may be the effect or the level left.
Test [6] is described as follows: Suppression of MITF expression in mouse Melan-a cells using forskolin-supplemented medium incubated for 1 day by Western blotting analysis. Type of test: functional, cell-based. On the technique in general: A western blot detects proteins with antibodies after separation by electrophoresis.
In test [7] the test system is Melan-a. The test can be described thus: Effect on tyrosinase maturation in mouse Melan-a cells assessed as immature Endo H-sensitive form measured in endoplasmic reticulum using forskolin-supplemented medium at 60 to 120 uM by Western blotting analysis. Type of test: functional, cell-based.
For test [8], the target named is T2, Tyrosinase. The test can be described thus: Inhibition of tyrosinase in mouse Melan-a cells assessed as decrease in L-DOPA Vmax at 120 uM by Lineweaver-Burk plot. Type of test: cell-based.
Test [9] can be described thus: Suppression of TRP1 expression in mouse Melan-a cells using forskolin-supplemented medium at 60 to 120 uM incubated for 1 day by Western blotting analysis. The format is functional, cell-based.
Test [10] concerns Melan-a. The test can be described thus: Suppression of tyrosinase/TRP-1 complex formation in mouse Melan-a cells using forskolin-supplemented medium at 120 uM incubated for 3 days by Western blotting analysis. The format is functional, cell-based.
Test [11] relates to Melan-a. The test can be described thus: Effect on tyrosinase localization in mouse Melan-a cells assessed as endoplasmic reticulum trapping at 60 uM incubated for 3 days by confocal immunofluorescence microscopy. The format is functional, cell-based.
Test [12] concerns the target T1, Tyrosinase (Mus musculus). The test can be described thus: Inhibition of tyrosinase in mouse Melan-a cells after 3 days by L-DOPA oxidation assay in presence of 1 uM forskolin melanogenesis inducer. The format is cell-based.

On to `OC[C@H]1O[C@@H](Oc2c(O)cc(O)cc2/C=C/c2ccc(O)cc2)[C@H](O)[C@@H](O)[C@@H]1O`, for which the result in [1], in [7] and in [11] was inactive. Moreover, the inhibition entry in test [2], in test [4], in [6] and in test [12] was “Dose-dependent effect” in each case. Besides, the Ki – broadly, the dissociation constant of the complex between target and ligand, obtained from inhibition or displacement – in test [3] amounted to 2.5 mM; in test [8] it was 2.8 mM. Moreover, the Activity in test [5] was determined as 103%. In test [9], the inhibition result is “inactive”. For the same molecule, the inhibition result in [10] was “Active”.

Consider `Oc1ccc(/C=C/c2cc(O)cc(O)c2)cc1` [RESVERATROL], for which the Ki in [8] stood at 2.9 mM.
